Data from publication PMC3914206.

Tests used:
panel of 442 kinases [1] = biological target: T1, panel of 442 kinases (Homo sapiens, UniProt P28482); format: binding; conditions: Compound Concentration 10 µM
T1 construct: purchased KINOMEscan
From the text: (§1) We assessed the selectivity of members of this scaffold using the KINOMEscan methodology across a near comprehensive panel of 442 kinases [[18,27]].

panel of 442 kinases [2] = biological target: T2, panel of 442 kinases (Homo sapiens, UniProt Q56UN5); format: binding; conditions: kinase YSK4; compound concentration 10 µM
T2 construct: purchased KINOMEscan
T2 sequence (Q56UN5 1-1328): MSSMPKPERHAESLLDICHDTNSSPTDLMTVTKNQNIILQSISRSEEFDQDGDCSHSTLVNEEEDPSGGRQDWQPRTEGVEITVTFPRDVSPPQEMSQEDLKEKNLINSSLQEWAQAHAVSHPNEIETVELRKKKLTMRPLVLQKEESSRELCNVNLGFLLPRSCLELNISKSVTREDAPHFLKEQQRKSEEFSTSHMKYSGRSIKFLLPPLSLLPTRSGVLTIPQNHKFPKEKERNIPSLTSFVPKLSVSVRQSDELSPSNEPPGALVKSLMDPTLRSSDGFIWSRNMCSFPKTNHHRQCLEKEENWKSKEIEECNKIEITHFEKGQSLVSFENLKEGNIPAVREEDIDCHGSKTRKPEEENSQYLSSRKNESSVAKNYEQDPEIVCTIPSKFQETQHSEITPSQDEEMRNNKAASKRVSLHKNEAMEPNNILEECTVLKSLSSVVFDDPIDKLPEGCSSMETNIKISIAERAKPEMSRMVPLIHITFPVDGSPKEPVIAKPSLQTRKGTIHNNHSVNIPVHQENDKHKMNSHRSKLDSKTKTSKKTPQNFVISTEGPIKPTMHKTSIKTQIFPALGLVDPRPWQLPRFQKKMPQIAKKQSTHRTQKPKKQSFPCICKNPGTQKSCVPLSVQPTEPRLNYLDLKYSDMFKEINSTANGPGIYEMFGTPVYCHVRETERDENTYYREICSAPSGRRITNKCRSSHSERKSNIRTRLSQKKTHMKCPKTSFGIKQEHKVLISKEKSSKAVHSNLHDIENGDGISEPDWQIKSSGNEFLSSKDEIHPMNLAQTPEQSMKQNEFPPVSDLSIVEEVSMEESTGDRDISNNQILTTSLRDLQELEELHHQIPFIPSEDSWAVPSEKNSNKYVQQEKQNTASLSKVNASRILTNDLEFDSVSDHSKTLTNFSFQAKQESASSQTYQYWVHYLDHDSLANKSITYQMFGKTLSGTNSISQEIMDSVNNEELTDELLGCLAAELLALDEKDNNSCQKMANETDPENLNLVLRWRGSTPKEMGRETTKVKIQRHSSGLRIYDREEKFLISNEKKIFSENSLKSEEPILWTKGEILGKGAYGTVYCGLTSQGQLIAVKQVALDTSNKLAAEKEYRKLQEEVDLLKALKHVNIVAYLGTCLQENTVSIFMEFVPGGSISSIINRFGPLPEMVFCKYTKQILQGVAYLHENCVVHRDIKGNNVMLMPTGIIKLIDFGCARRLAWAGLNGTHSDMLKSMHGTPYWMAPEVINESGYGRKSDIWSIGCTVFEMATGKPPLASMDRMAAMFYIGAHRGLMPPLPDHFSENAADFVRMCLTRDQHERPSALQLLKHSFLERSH
From the text: as §1

T1 sequence (P28482 whole entry): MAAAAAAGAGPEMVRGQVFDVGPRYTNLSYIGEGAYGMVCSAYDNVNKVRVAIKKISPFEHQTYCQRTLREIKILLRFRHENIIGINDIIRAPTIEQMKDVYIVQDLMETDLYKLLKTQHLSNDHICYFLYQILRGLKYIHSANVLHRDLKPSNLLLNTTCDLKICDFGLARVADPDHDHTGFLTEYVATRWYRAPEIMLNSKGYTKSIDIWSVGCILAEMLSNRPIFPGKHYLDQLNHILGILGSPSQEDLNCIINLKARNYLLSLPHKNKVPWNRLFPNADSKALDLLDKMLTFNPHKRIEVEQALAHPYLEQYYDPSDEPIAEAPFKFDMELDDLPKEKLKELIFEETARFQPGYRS

COc1cc(C(=O)N2CCC(N3CCN(C)CC3)CC2)ccc1Nc1ncc2c(n1)N(C)c1ccccc1C(=O)N2C [15 (LRRK2-IN-1)]
KINOMEscan: ERK2 (panel of 442 kinases [1]): 85
% Ctrl, YSK4 (panel of 442 kinases [2]): 99 % Ctrl

CCOc1cc(C(=O)N2CCC(N3CCN(C)CC3)CC2)ccc1Nc1ncc2c(n1)N(C1CCCC1)c1ccccc1C(=O)N2C [Compound 26]
KINOMEscan: ERK2 (panel of 442 kinases [1]): 100
% Ctrl, YSK4 (panel of 442 kinases [2]): 100 % Ctrl

COc1cc(C(=O)N2CCC(N3CCN(C)CC3)CC2)ccc1Nc1ncc2c(n1)N1CCc3cccc(c31)C(=O)N2C [Compound 24]
KINOMEscan: ERK2 (panel of 442 kinases [1]): 88
% Ctrl, YSK4 (panel of 442 kinases [2]): 24 % Ctrl

COc1cc(C(=O)N2CCC(N3CCN(C)CC3)CC2)ccc1Nc1ncc2c(n1)N(C1CCCC1)c1ccccc1C(=O)N2C [Compound 25, 11-cyclopentyl-2-((2-methoxy-4-(4-(4-methylpiperazin-1-yl)piperidine-1-carbonyl)phenyl)amino)-5-methyl-5H-benzo[e]pyrimido[5,4-b][1,4]diazepin-6(11H)-one]
KINOMEscan: ERK2 (panel of 442 kinases [1]): 98
% Ctrl, YSK4 (panel of 442 kinases [2]): 100 % Ctrl
